# Key:
# S. aureus [1] = assay: Electron transport system (ETS) inhibition assay; type: cell-based, Staphylococcus aureus; conditions: for fluorescence signal of stain, S. aureus: no ETS inhibitor (Untreated)
# Experimental: (§1) S. aureus and E. coli were treated with known inhibitors of the electron transport system (ETS) to determine if reductase moieties in the ETS would reduce exemplary stain compounds. […] The bacteria were diluted in PBS buffer and treated with the various ETS inhibitors, stained with 500 nM stain compound (18) for 10 minutes, and then analyzed by flow cytometry using a Becton Dickinson FACSCalibur™ instrument (Becton, Dickinson and Company; Franklin Lakes, N.J.) containing a 488 nm argon ion laser.
# (§2) Stain compound (19) was assayed according to the procedure outlined in Example 23.
# (§3) Stain compound (22) was assayed according to the procedure outlined in Example 23.
# (§4) Stain compound (24) was assayed according to the procedure outlined in Example 23.
# E. coli [2] = assay: Electron transport system (ETS) inhibition assay; type: cell-based, Escherichia coli; conditions: for fluorescence signal of stain, E. coli: no ETS inhibitor (Untreated)
# Experimental: as §1, §2, §3, §4
# K. pneumoniae [3] = assay: Titration series on cultured bacteria; type: cell-based, Klebsiella pneumoniae; conditions: titration 500 nM to 4 uM; Gram-negative organisms tested
# Experimental: (§5) The x-axis represents the concentration of compound (18) in nM, while the y-axis represents FL1 GeoMean fluorescence.
# (§6) A titration series was performed on cultured bacteria. Chemical compound (18) was used at concentrations ranging from 10 nM to 1 uM for S. aureus and B. subtilis (FIG. 2), and 500 nM to 4 uM for E. coli and K. pneumoniae (FIG. 3).
# E. coli [4] = assay: Staining of bacteria, flow cytometry; type: cell-based, Escherichia coli; conditions: 500 nM, 10 minutes
# Experimental: (§7) Gram-positive and Gram-negative bacteria were labeled using compound (18). S. aureus and B. subtilis were used as examples of Gram-positive bacteria, and E. coli and K. pneumoniae were used as examples of Gram-negative bacteria. Cells were diluted in buffer to about 10^6 cells/mL. The bacteria were contacted with compound 18 (500 nM) for 10 minutes in Hank's Balanced Salt Solution (HBSS) or various other buffers such as PBS. The samples were analyzed by flow cytometry using a Becton Dickinson FACScan™ instrument (Becton, Dickinson and Company; Franklin Lakes, N.J.) containing a 488 nm argon ion laser. Cells were analyzed directly without washing, or optionally, were fixed with 1-4% formaldehyde prior to flow cytometric analysis.
# B. subtilis [5] = assay: Titration series on cultured bacteria; type: cell-based, Bacillus subtilis; conditions: titration 10 nM to 1 uM
# Experimental: as §5, §6
# K. pneumoniae [6] = assay: Staining of bacteria, flow cytometry; type: cell-based, Klebsiella pneumoniae; conditions: 500 nM, 10 minutes
# Experimental: as §7
# S. aureus [7] = assay: Titration series on cultured bacteria; type: cell-based, Staphylococcus aureus; conditions: titration 10 nM to 1 uM
# Experimental: as §5, §6
# E. coli [8] = assay: Titration series on cultured bacteria; type: cell-based, Escherichia coli; conditions: titration 500 nM to 4 uM; Gram-negative organisms tested
# Experimental: as §5, §6
# S. aureus [9] = assay: Staining of bacteria, flow cytometry; type: cell-based, Staphylococcus aureus; conditions: 500 nM, 10 minutes
# Experimental: as §7
# B. subtilis [10] = assay: Staining of bacteria, flow cytometry; type: cell-based, Bacillus subtilis; conditions: 500 nM, 10 minutes
# Experimental: as §7
# S. aureus [11] = assay: Time course treatments (growth and stain fluorescence); type: cell-based, Staphylococcus aureus; conditions: compound present in broth culture medium
# Experimental: Control samples that were untreated were also prepared.
# Samples were taken once every hour for six hours and stained with 500 nM compound (18) for 10 minutes, then analyzed by flow cytometry using a Becton Dickinson FACSCalibur™ instrument (Becton, Dickinson and Company; Franklin Lakes, N.J.) containing a 488 nm argon ion laser. Not only did the treated cells not proliferate, but the signal from the stain in treated samples decreased once the cells entered ‘log-growth’ phase as compared to the untreated control.
# S. aureus [12] = assay: Stability of fluorescence; type: cell-based, Staphylococcus aureus; conditions: monitored for one hour
# Experimental: (§8) Compound (18) was contacted with cultures of S. aureus, B. subtilis, E. coli, and K. pneumoniae. The fluorescence of the samples were monitored for one hour. The signal developed very quickly for S. aureus and B. subtilis, and stabilized within 10 minutes. The signal was stable for at least one hour (FIG. 6).
# S. aureus [13] = assay: Fixation assays (compatibility with fixed samples); type: cell-based, Staphylococcus aureus; conditions: 100 nM, 10 minutes, HBSS
# Experimental: A culture of S. aureus was grown to log-phase, and washed and diluted in HBSS to 10^6 cells per mL. Samples of 1 mL each were aliquotted to six flow cytometry tubes. CCCP was added to three of the samples at a final concentration of 10 μM. The samples were incubated for 1-5 minutes. Compound (18) was added at a final concentration of 100 nM, and the samples were allowed to sit for 10 minutes. The +/− CCCP tubes were divided into two sets: one set received 1 mL of 100% ethanol, and the other set received 100 µL of 10% formaldehyde (methanol-free). The samples were analyzed using a Becton Dickinson FACSCalibur as described in Example 23.
# B. subtilis [14] = assay: Stability of fluorescence; type: cell-based, Bacillus subtilis; conditions: monitored for one hour
# Experimental: as §8
# [15] = stained with compound (18) 500 nM, rotenone 1 mM, antimycin A 20 uM, azide 10 mM, CCCP 10 uM
# [16] = buffer Sodium chloride + 10 mM glucose
# [17] = stain compound (18) 500 nM, 10 minutes, PBS
molecule,measurement,setting,value
"C=C(C)[C@H]1Cc2c(ccc3c2O[C@@H]2COc4cc(OC)c(OC)cc4[C@@H]2C3=O)O1 [Rotenone, rotenone]","fluorescence signal after inhibitor treatment, S. aureus",S. aureus [1]; [15],32.75
same,"fluorescence signal after inhibitor treatment, S. aureus",S. aureus [1]; stained with compound (19),8.19
same,"fluorescence signal after inhibitor treatment, S. aureus",S. aureus [1]; stained with compound (22),11.74
same,"fluorescence signal after inhibitor treatment, S. aureus",S. aureus [1]; stained with compound (24),17.17
same,"fluorescence signal after inhibitor treatment, E. coli",E. coli [2]; [15],24.05
same,"fluorescence signal after inhibitor treatment, E. coli",E. coli [2]; stained with compound (19),20.56
same,"fluorescence signal after inhibitor treatment, E. coli",E. coli [2]; stained with compound (22),38.81
same,"fluorescence signal after inhibitor treatment, E. coli",E. coli [2]; stained with compound (24),44.66
antimycin A,"fluorescence signal after inhibitor treatment, S. aureus",S. aureus [1]; [15],59.41
same,"fluorescence signal after inhibitor treatment, S. aureus",S. aureus [1]; stained with compound (19),4.1
same,"fluorescence signal after inhibitor treatment, S. aureus",S. aureus [1]; stained with compound (22),6.16
same,"fluorescence signal after inhibitor treatment, S. aureus",S. aureus [1]; stained with compound (24),6.56
same,"fluorescence signal after inhibitor treatment, E. coli",E. coli [2]; [15],34.65
same,"fluorescence signal after inhibitor treatment, E. coli",E. coli [2]; stained with compound (19),12.4
same,"fluorescence signal after inhibitor treatment, E. coli",E. coli [2]; stained with compound (22),20.17
same,"fluorescence signal after inhibitor treatment, E. coli",E. coli [2]; stained with compound (24),26.28
CC1=C(C)C(=O)C(N(C)CCCN(C)C2=C/C(=C\c3sc4ccccc4[n+]3C)c3ccccc3N2c2ccccc2)=C(C)C1=O [Compound 24],"fluorescence signal of stain, S. aureus",S. aureus [1]; stain compound (24),853.47
same,"fluorescence signal of stain, E. coli",E. coli [2]; stain compound (24),114.71
"N#CC(C#N)=NNc1cccc(Cl)c1 [CCCP, carbonyl cyanide m-chlorophenylhydrazone]","fluorescence signal after inhibitor treatment, S. aureus",S. aureus [1]; [15],4.19
same,"fluorescence signal after inhibitor treatment, S. aureus",S. aureus [1]; stained with compound (19),46.73
same,"fluorescence signal after inhibitor treatment, S. aureus",S. aureus [1]; stained with compound (22),240.61
same,"fluorescence signal after inhibitor treatment, S. aureus",S. aureus [1]; stained with compound (24),402.19
same,"fluorescence signal after inhibitor treatment, E. coli",E. coli [2]; [15],150.7
same,"fluorescence signal after inhibitor treatment, E. coli",E. coli [2]; stained with compound (19),12.59
same,"fluorescence signal after inhibitor treatment, E. coli",E. coli [2]; stained with compound (22),63.26
same,"fluorescence signal after inhibitor treatment, E. coli",E. coli [2]; stained with compound (24),152.7
CC1=C(C)C(=O)C(N2CCC(NC(=O)CCCN(C)C3=C/C(=C\c4sc5ccccc5[n+]4C)c4ccccc4N3c3ccccc3)CC2)=C(C)C1=O [Compound 18],preferred concentration for staining,K. pneumoniae [3],about 1 uM
same,FL1 GeoMean fluorescence,E. coli [4]; buffer HBSS,42.1
same,FL1 GeoMean fluorescence,E. coli [4]; buffer PBS + 1 mM EDTA,70.92
same,FL1 GeoMean fluorescence,E. coli [4]; buffer PBS + 0.01% Tween-20,44.48
same,FL1 GeoMean fluorescence,E. coli [4]; buffer PBS + 0.1% Pluronic,136.43
same,FL1 GeoMean fluorescence,E. coli [4]; buffer PBS,30.25
same,FL1 GeoMean fluorescence,E. coli [4]; [16],11.52
same,FL1 GeoMean fluorescence,E. coli [4]; buffer Sodium chloride,12.43
same,"fluorescence signal of stain, S. aureus",S. aureus [1]; [17],351.91
same,optimal concentration for staining,B. subtilis [5],about 500 nM
same,FL1 GeoMean fluorescence,K. pneumoniae [6]; buffer HBSS,19.9
same,FL1 GeoMean fluorescence,K. pneumoniae [6]; buffer PBS + 1 mM EDTA,48.67
same,FL1 GeoMean fluorescence,K. pneumoniae [6]; buffer PBS + 0.01% Tween-20,29
same,FL1 GeoMean fluorescence,K. pneumoniae [6]; buffer PBS + 0.1% Pluronic,78.1
same,FL1 GeoMean fluorescence,K. pneumoniae [6]; buffer PBS,17.91
same,FL1 GeoMean fluorescence,K. pneumoniae [6]; [16],9.7
same,FL1 GeoMean fluorescence,K. pneumoniae [6]; buffer Sodium chloride,9.16
same,concentration found to work well for staining,S. aureus [7],50 to 100 nM
same,preferred concentration for staining,E. coli [8],about 1 uM
same,FL1 GeoMean fluorescence,S. aureus [9]; buffer HBSS,2168.52
same,FL1 GeoMean fluorescence,S. aureus [9]; buffer PBS + 1 mM EDTA,1583.19
same,FL1 GeoMean fluorescence,S. aureus [9]; buffer PBS + 0.01% Tween-20,2909.97
same,FL1 GeoMean fluorescence,S. aureus [9]; buffer PBS + 0.1% Pluronic,1685.21
same,FL1 GeoMean fluorescence,S. aureus [9]; buffer PBS,1976.41
same,FL1 GeoMean fluorescence,S. aureus [9]; [16],2183.44
same,FL1 GeoMean fluorescence,S. aureus [9]; buffer Sodium chloride,2171.61
same,FL1 GeoMean fluorescence,B. subtilis [10]; buffer HBSS,902.22
same,FL1 GeoMean fluorescence,B. subtilis [10]; buffer PBS + 1 mM EDTA,57.75
same,FL1 GeoMean fluorescence,B. subtilis [10]; buffer PBS + 0.01% Tween-20,844.66
same,FL1 GeoMean fluorescence,B. subtilis [10]; buffer PBS + 0.1% Pluronic,470.35
same,FL1 GeoMean fluorescence,B. subtilis [10]; buffer PBS,902.15
same,FL1 GeoMean fluorescence,B. subtilis [10]; [16],943.79
same,FL1 GeoMean fluorescence,B. subtilis [10]; buffer Sodium chloride,951.93
same,proliferation of S. aureus,S. aureus [11],prevented proliferation
same,time for fluorescence signal to stabilize,S. aureus [12],≤ 10 min
same,time the fluorescence signal was stable,S. aureus [12],at least one
same,Fluorescence,"S. aureus [13]; CCCP No, Fixation agent Ethanol",135
same,Fluorescence,"S. aureus [13]; CCCP No, Fixation agent Formaldehyde",936
same,Fluorescence,"S. aureus [13]; CCCP No, Fixation agent None",1720
same,Fluorescence,"S. aureus [13]; CCCP Yes (10 μM), Fixation agent Ethanol",53
same,Fluorescence,"S. aureus [13]; CCCP Yes (10 μM), Fixation agent Formaldehyde",274
same,Fluorescence,"S. aureus [13]; CCCP Yes (10 μM), Fixation agent None",110
same,"fluorescence signal of stain, E. coli",E. coli [2]; [17],85.33
same,time for fluorescence signal to stabilize,B. subtilis [14],≤ 10 min
same,time the fluorescence signal was stable,B. subtilis [14],at least one
CC1=C(C)C(=O)C(N2CCN(C(=O)CCCN(C)C3=C/C(=C\c4sc5ccccc5[n+]4C)C=CN3c3ccccc3)CC2)=C(C)C1=O [Compound 19],"fluorescence signal of stain, S. aureus",S. aureus [1]; stain compound (19),248.1
same,"fluorescence signal of stain, E. coli",E. coli [2]; stain compound (19),59.78
CC1=C(NCCCN(C)C2=C/C(=C\c3sc4ccccc4[n+]3C)c3ccccc3N2c2ccccc2)C(=O)c2ccccc2C1=O [Compound 22],"fluorescence signal of stain, S. aureus",S. aureus [1]; stain compound (22),594.12
same,"fluorescence signal of stain, E. coli",E. coli [2]; stain compound (22),90.91

# Source: patent US8962853B2, “Chemical probe compounds that become fluorescent upon reduction, and methods for their use” (Life Technologies Corporation, priority 2005, dated 2015)
